We go through 15 compounds from US20080293712A1, “Benzo[C][2,7]Naphtyridine Derivatives, Methods of Making Thereof and Methods of Use Thereof” (WYETH, priority 2007, published 2008).

Holding throughout (format): biochemical
One experiment addresses T1, PDK-1 (Homo sapiens, UniProt O15530).
T1 sequence (O15530 1-556): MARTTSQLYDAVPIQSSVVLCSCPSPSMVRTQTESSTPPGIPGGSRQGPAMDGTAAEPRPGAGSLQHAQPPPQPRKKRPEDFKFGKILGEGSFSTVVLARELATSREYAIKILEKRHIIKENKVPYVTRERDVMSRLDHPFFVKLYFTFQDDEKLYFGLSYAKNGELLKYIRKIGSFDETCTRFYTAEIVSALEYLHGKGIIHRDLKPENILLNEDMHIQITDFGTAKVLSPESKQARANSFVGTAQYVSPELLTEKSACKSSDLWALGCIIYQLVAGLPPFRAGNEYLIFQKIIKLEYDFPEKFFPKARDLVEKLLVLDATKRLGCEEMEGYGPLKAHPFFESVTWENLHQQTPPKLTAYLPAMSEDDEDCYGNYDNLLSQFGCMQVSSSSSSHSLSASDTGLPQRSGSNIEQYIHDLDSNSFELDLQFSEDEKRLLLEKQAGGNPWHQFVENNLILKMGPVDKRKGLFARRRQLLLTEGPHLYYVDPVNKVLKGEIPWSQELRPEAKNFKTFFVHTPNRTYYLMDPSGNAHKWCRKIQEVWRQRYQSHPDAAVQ
The experiment in a line: PDK-1 kinase inhibition ELISA assay (phosphorylation of His6-tagged SGK1 S422D by PDK-1). The following applies: PDK-1 ELISA, Table 11; read-out: Average IC50.

For another experiment, the target named is PKA (Homo sapiens, UniProt P17612). Description: PKA kinase inhibition, Z'-LYTE FRET assay.
The target in a further experiment is Akt1 (Homo sapiens, UniProt P31749). Description: Akt1 kinase inhibition, Z'-LYTE FRET assay. Particulars: 100 μM ATP. In short, it runs like this: (§1)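 Z'-LYTE FRET format: kinase phosphorylates fluorophore-labelled peptide with ATP, then protease cleaves only non-phosphorylated peptide. Phosphorylation calculated from donor (460 nm)/acceptor (535 nm) emission ratio after 400 nm excitation; IC50 values derived.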

In a further experiment the target is S6K (Homo sapiens, UniProt P23443). Description: S6K kinase inhibition, Z'-LYTE FRET assay. Particulars: 100 μM ATP. A digest of the protocol:
as §1

Experiment [1] deals with T2, human PKCθ full length enzyme (Homo sapiens, UniProt Q04759).
T2 construct: human PKCθ full length enzyme; purchased Panvera, Madison, Wis., now Invitrogen, Carlsbad, Calif; P2996
Description: PKCθ kinase inhibition, IMAP fluorescence polarization assay. Particulars: 6 μM ATP. From the text: The ability of illustrative Benzo[c][2,7]naphthyridine Derivatives to inhibit PKCθ can be determined using an IMAP Assay (Molecular Devices Corporation, Sunnyvale, Calif.). The materials used include the following: human PKCθ full length enzyme (Panvera, Madison, Wis., now Invitrogen, Carlsbad, Calif., Cat. No. P2996); substrate peptide: 5FAM-[…]-OH (Molecular Devices, Cat. No. RP7032); ATP (Sigma-Aldrich, St. Louis, Mo., Sigma Cat. No. A2383); DTT (e.g., Pierce, now Fisher Scientific, Waltham, Mass., Pierce Cat. No. 20291); 5× kinase reaction buffer (Molecular Devices, Cat. No. R7209); 5× binding buffer A (Molecular Devices, Cat. No. R7282), 5× binding buffer B (Molecular Devices, Cat. No. R7209); IMAP Beads (Molecular Devices, Cat. No. R7284); and 384-well plates (Corning Costar, Acton, Mass., Cat. No. 3710). The reaction buffer is prepared by diluting the 5× stock reaction buffer and adding DTT to obtain a concentration of 3.0 mM. The binding buffer is prepared by diluting the 5× binding buffer A. A master mix solution is prepared using a 90% dilution of the reaction buffer containing 2×ATP (12 μM) and 2× peptide (200 nM). […] The final concentration of compound is 2× and 10% DMSO. DMSO is added to the rest of the master mix to increase the concentration to 10%. 10 μl of the master mix containing 10% DMSO is added to the rest of the wells on the plate except the 2nd column. 20 μl is transferred from the first column to the 2nd column. The compounds are serially diluted in 2:1 ratio starting from the 2nd column. A 2× (2 nM) PKCθ solution is made in the reaction buffer. 10 μl of the PKCθ solution is added to every well to achieve these final concentrations: PKCθ—1 nM; ATP—6 μM; peptide—100 nM; DMSO—5%. Samples are incubated for 25 minutes at room temperature. The binding reagent is prepared by diluting the beads in 1× binding buffer to 800:1. 50 μl of the binding reagent is added to every well and incubated for 20 minutes. Fluorescence polarization is measured using EnVision™ 2100 multilabel reader (PerkinElmer Life Sciences, Wellesley, Mass.). Wells with no ATPs and wells with no enzymes are used as controls.

pIC50: −log10 of the molar value. Where only a bound is given, the exact number is not on record here.

Sequence of Akt1 (P31749 whole entry, species assumed): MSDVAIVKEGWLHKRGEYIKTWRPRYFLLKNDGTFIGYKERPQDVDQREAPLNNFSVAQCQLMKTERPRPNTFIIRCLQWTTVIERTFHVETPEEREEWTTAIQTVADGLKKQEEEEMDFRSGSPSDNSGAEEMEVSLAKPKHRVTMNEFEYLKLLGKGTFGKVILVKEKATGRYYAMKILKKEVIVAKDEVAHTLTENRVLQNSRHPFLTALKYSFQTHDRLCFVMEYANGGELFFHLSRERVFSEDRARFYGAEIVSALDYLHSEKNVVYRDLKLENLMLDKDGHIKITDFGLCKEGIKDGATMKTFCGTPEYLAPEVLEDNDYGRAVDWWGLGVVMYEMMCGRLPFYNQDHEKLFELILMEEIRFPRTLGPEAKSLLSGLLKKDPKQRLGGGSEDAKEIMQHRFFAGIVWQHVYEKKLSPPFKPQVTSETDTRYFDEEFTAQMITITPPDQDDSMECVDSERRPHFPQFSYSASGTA
T2 sequence (Q04759 whole entry): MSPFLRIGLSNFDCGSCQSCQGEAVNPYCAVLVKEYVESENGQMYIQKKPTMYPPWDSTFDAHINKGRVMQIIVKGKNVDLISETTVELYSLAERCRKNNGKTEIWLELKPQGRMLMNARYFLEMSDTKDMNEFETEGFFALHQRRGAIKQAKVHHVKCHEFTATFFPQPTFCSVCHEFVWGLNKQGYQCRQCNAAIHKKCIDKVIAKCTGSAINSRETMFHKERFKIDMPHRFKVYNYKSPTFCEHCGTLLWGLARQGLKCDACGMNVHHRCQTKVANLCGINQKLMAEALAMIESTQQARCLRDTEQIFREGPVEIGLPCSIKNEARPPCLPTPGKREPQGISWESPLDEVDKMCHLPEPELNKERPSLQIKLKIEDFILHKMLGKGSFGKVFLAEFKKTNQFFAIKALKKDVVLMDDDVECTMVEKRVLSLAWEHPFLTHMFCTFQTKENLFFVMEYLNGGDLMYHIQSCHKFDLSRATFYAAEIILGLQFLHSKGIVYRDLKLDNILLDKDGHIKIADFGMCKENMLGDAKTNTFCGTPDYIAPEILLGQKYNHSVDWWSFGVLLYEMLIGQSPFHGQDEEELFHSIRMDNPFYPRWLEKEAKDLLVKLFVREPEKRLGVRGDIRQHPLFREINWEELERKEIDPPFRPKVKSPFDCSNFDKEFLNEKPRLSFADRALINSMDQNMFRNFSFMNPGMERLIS
Sequence of S6K (P23443 whole entry): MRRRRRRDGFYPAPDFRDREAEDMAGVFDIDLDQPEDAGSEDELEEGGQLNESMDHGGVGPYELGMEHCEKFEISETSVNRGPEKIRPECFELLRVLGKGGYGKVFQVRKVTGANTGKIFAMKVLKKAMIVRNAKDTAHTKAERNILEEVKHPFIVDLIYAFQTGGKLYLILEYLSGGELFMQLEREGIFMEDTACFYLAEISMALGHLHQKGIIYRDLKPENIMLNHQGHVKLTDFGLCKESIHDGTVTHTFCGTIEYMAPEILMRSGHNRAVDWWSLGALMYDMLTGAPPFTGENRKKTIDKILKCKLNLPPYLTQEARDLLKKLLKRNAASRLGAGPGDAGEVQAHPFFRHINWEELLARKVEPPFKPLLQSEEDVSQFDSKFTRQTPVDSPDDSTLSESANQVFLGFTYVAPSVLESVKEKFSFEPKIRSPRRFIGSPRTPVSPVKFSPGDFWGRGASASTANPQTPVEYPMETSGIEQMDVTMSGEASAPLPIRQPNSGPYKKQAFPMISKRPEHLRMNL
Description for PKA: Z′-Lyte™ assay is an in vitro FRET-based assay that utilizes differential sensitivity of phosphorylated and non-phosphorylated peptides to proteolytic cleavage. The peptide substrate (also available from Invitrogen for each of PKA, Akt1 and S6K) is labeled with two different fluorophores, a fluorescence donor at one end of the peptide and a fluorescence acceptor at the other end of the peptide. In the primary kinase reaction, the kinase phosphorylates the peptide substrate in the presence of ATP. In the secondary reaction, a site-specific protease recognizes and cleaves non-phosphorylated peptides, but not phosphorylated peptides. Cleavage disrupts FRET between the donor and acceptor fluorophores on the peptide, whereas uncleaved phosphorylated peptides maintain FRET. Based on a formula that uses the ratio of donor emission (at 460 nm) to acceptor emission (at 535 nM) after excitation of the donor fluorophore at 400 nm, the extent of phosphorylation of the peptide substrates is calculated.

By pIC50 is commonly meant the negative decadic logarithm of the IC50, by convention in mol/L. `COCCOc1cc2ncc3c(N)nc(-c4cncc(OC[C@@H](N)Cc5ccccc5)c4)cc3c2cc1OC` [Ia-11, 2-(5-{[(2S)-2-amino-3-phenylpropyl]oxy}pyridin-3-yl)-9-methoxy-8-(2-methoxyethoxy)benzo[c]-2,7-naphthyridin-4-amine]: the negative-log IC50 (pIC50) at PDK-1 is 7.92; against PKA (20 μM ATP), 7.42; on PKA (100 μM ATP), 6.41; at Akt1 it was 9.00; on S6K, 7.47; in experiment [1], 7.77.

Regarding `COc1cc2c(cc1OCCN1CCCC1)ncc1c(N)nc(-n3ccnc3)cc12` [Ia-12, 2-(1H-imidazol-1-yl)-9-methoxy-8-(2-pyrrolidin-1-ylethoxy)benzo[c]-2,7-naphthyridin-4-amine], the negative-log IC50 (pIC50) on PDK-1 was 6.29; against PKA (20 μM ATP), below 5.00; at Akt1 it was 6.65; in experiment [1], 6.59.

With `COc1cc2c(cc1OCCN1CCOCC1)ncc1c(N)nc(-n3ccnc3)cc12` [Ia-13, 2-(1H-imidazol-1-yl)-9-methoxy-8-(2-morpholinoethoxy)benzo[c][2,7]naphthyridin-4-amine], the negative-log IC50 (pIC50) on PDK-1 is 7.10; at PKA (20 μM ATP) it was below 5.00; at PKA (100 μM ATP) it was below 5.70; against Akt1, 7.15; on S6K, 6.18; in experiment [1] it was 6.92.

Consider `CCOc1cc2ncc3c(N)nc(-n4ccnc4)cc3c2cc1N` [Ia-28, 8-Ethoxy-2-(1H-imidazol-1-yl)benzo[c]-2,7-naphthyridine-4,9-diamine], for which the pIC50 at PDK-1 is 7.34; against PKA (100 μM ATP), below 5.70; against Akt1, 6.44; on S6K, 5.96; in experiment [1] it was 6.87.

Regarding `CCSc1cc2ncc3c(N)nc(-c4cncc(OC[C@@H](N)Cc5ccccc5)c4)cc3c2cc1OC` [Ia-40, 2-(5-{[(2S)-2-amino-3-phenylpropyl]oxy}pyridin-3-yl)-8-(ethylthio)-9-methoxybenzo[c]-2,7-naphthyridin-4-amine], the negative-log IC50 (pIC50) on PDK-1 is 7.35; against PKA (20 μM ATP), below 4.70; against Akt1, 6.00; in experiment [1] it was 6.28.

On to `COCCOc1cc2ncc3c(N)nc(-n4ccnc4)cc3c2cc1OC` [Ia-48, 2-(1H-imidazol-1-yl)-9-methoxy-8-(2-methoxyethoxy)benzo[c]-2,7-naphthyridin-4-amine], for which the pIC50 against PKA (20 μM ATP) was below 4.70; against PKA (100 μM ATP), below 5.70; against Akt1, 6.70; at S6K, 5.86; in experiment [1], 6.94.

Take `COc1cc2ncc3c(N)nc(-c4cncc(OC[C@@H](N)Cc5ccc(O)cc5)c4)cc3c2cc1OC` [Ib-53, 4-((2S)-2-Amino-3-{[5-(4-amino-8,9-dimethoxybenzo[c]-2,7-naphthyridin-2-yl)pyridin-3-yl]oxy}propyl)phenol]: the negative-log IC50 (pIC50) on PDK-1 was 7.77; against PKA (20 μM ATP), 6.40; against PKA (100 μM ATP), below 5.70; on Akt1, 7.82; against S6K it was 7.07.

Turning to `COc1cc2ncc3c(N)nc(-c4cncc(OC[C@H](N)Cc5c[nH]c6ccccc56)c4)cc3c2cc1OC` [Ib-55, 2-(5-{[(2R)-2-amino-3-(1H-indol-3-yl)propyl]oxy}pyridin-3-yl)-8,9-dimethoxybenzo[c]-2,7-naphthyridin-4-amine], the pIC50 is 7.82 on PDK-1; above 7.10 against PKA (20 μM ATP); 5.88 against PKA (100 μM ATP); 7.74 at Akt1; 6.60 at S6K; 8.52 in experiment [1].

`COc1cc2ncc3c(N)nc(-c4cncc(OC[C@H](N)Cc5ccccc5)c4)cc3c2cc1OC` [Ib-56, 2-(5-{[(2R)-2-amino-3-phenylpropyl]oxy}pyridin-3-yl)-8,9-dimethoxybenzo[c]-2,7-naphthyridin-4-amine]: the negative-log IC50 (pIC50) against PKA (20 μM ATP) was above 6.80; at PKA (100 μM ATP), 6.59; at Akt1, 8.52; at S6K, 7.06; in experiment [1] it was 8.40.

Turning to `COc1cc2ncc3c(N)nc(-c4cncc(O)c4)cc3c2cc1OC` [Ib-57, 5-(4-Amino-8,9-dimethoxybenzo[c]-2,7-naphthyridin-2-yl)pyridin-3-ol], the negative-log IC50 (pIC50) was 7.24 at PDK-1; below 4.70 against PKA (20 μM ATP); below 5.70 at PKA (100 μM ATP); 6.52 on Akt1; below 5.70 on S6K; 6.48 in experiment [1].

Regarding `COc1cc2ncc3c(N)nc(-c4cncc(O[C@@H]5CCNC5)c4)cc3c2cc1OC` [Ib-58, 8,9-dimethoxy-2-{5-[(3R)-pyrrolidin-3-yloxy]pyridin-3-yl}benzo[c]-2,7-naphthyridin-4-amine], the pIC50 at PDK-1 was 7.18; against PKA (20 μM ATP), 6.85; against PKA (100 μM ATP) it was 5.82; against Akt1, 7.22; against S6K, 6.45; in experiment [1] it was 6.60.

For `COc1cc2ncc3c(N)nc(-c4cncc(O[C@H]5CCNC5)c4)cc3c2cc1OC` [Ib-59, 8,9-dimethoxy-2-{5-[(3S)-pyrrolidin-3-yloxy]pyridin-3-yl}benzo[c]-2,7-naphthyridin-4-amine], the negative-log IC50 (pIC50) at PDK-1 was 7.19; on PKA (20 μM ATP), 5.70; at PKA (100 μM ATP) it was below 5.70; against Akt1, 6.54; at S6K, 5.91; in experiment [1], 6.23.

As for `COc1cc2ncc3c(N)nc(-c4cncc(OC[C@H]5CCCN5)c4)cc3c2cc1OC` [Ib-61, 8,9-dimethoxy-2-{5-[(2R)-pyrrolidin-2-ylmethoxy]pyridin-3-yl}benzo[c]-2,7-naphthyridin-4-amine], the pIC50 is 7.37 on PDK-1; 5.82 on PKA (20 μM ATP); below 5.70 against PKA (100 μM ATP); 6.60 on Akt1; 7.09 to 8.15 against S6K.

Consider `COc1cc2ncc3c(N)nc(-c4cncc(OC[C@@H](N)Cc5ccccc5)c4)cc3c2cc1OC` [Ib-62, 2-(5-{[(2S)-2-amino-3-phenylpropyl]oxy}pyridin-3-yl)-8,9-dimethoxybenzo[c]-2,7-naphthyridin-4-amine], for which the negative logarithm of the IC50 (pIC50) on PDK-1 is 8.00; against PKA (20 μM ATP), 7.64; on PKA (100 μM ATP), 6.30 to 6.84; at Akt1 it was above 6.80; on S6K, 6.85 to 7.01; in experiment [1], 7.54.

For the compound `COc1cc2ncc3c(N)nc(-c4cncn4C)cc3c2cc1OC` [Ib-63, 8,9-Dimethoxy-2-(1-methyl-1H-imidazol-5-yl)benzo[c]-2,7-naphthyridin-4-amine], the pIC50 at PDK-1 was 7.18; on PKA (20 μM ATP) it was below 4.70; against PKA (100 μM ATP), below 5.70; against Akt1 it was 6.40; at S6K, 5.89.
